Source: publication PMC11322497 (Frontiers in Pharmacology, 2024)

Tested on: high fat diet (HFD) rabbit model of metabolic-associated steatohepatitis (MASH)
Assay: HFD rabbit study, prolonged 4-week treatment (weeks 9–12): clinical and biochemical data
Type: in vivo, New Zealand White rabbits
Conditions: HFD rabbits, mean±SD, n=7
Procedure: After 1 week (W) of RD, the animals (n = 44) were randomly assigned to the following groups (Table 1B): • Control rabbits continued to receive a RD for 12 weeks and were treated with vehicle for 5 days a week (days 1–5, p.o.) during the last 4 weeks before culling (RD + 4W Veh group); • Rabbits received a HFD for 8 weeks and were culled (HFD 8W group); • Rabbits received a HFD for 12 weeks and were treated with vehicle for 5 days a week (days 1–5, p.o.) during the last 4 weeks before culling (HFD+4W Veh group); • Rabbits received a HFD for 12 weeks and were treated with GB1211 (0.3 mg/kg) for 5 days a week (days 1–5, p.o.) during the last 4 weeks before culling (HFD + 4W 0.3 mg group); • Rabbits received a HFD for 12 weeks and were treated with GB1211 (1.0 mg/kg) for 5 days a week (days 1–5, p.o.) during the last 4 weeks before culling (HFD + 4W 1.0 mg group); • Rabbits received a HFD for 12 weeks and were treated with GB1211 (5.0 mg/kg) for 5 days a week (days 1–5, p.o.) during the last 4 weeks before culling (HFD + 4W 5.0 mg group).
The oral glucose tolerance test (OGTT) was performed in accordance with the published method ([Filippi et al., 2009]). Briefly, after an overnight fast, a 50% glucose solution was orally administered to the animals at a dose of 1.5 g/kg. Blood samples were collected before and 15, 30, and 120 min after glucose loading. The incremental area under the curve (iAUC) was calculated by using GraphPad Prism (GraphPad Software, San Diego, CA). Blood samples for analyses were obtained from the marginal ear vein at week 8 or 12, in all groups. All blood samples were collected in standard conditions, before 10 a.m. after an overnight fasting. The blood was immediately centrifuged at 2,000 g for 20 min at 4°C and collected plasma/serum stored at −80°C until assayed. Plasma glucose, total cholesterol, triglycerides, transaminases (AST and ALT), and gamma-glutamyl transferase levels were measured using an automated system (Cobas 8000, Roche Diagnostics International AG, Rotkreuz, Switzerland). Serum alkaline phosphatase, albumin and total bilirubin levels were measured at IDEXX Laboratories (Kornwestheim, Germany), using an automated system (AU480, Beckman-Coulter, Brea, CA) with kinetic and photometric colour tests as per the following methods: alkaline phosphatase - alkaline buffer solution [2-amino-2-methylpropanol (AMP) in conjunction with p-nitrophenyl phosphate (pNPP)], according to the recommendation of the International Federation for Clinical Chemistry; albumin - the reaction of bromocresol green with albumin produces a colour complex, the absorption of which is measured dichromatically ([Doumas et al., 1971]); total bilirubin - a stabilized diazonium salt, 3,5-dichlorophenyldiazonium tetrafluoroborate (DPD), reacts with bilirubin to formazobilirubin, which absorbs at 570 nm ([Tolman and Rej, 1999]).
Mean arterial blood pressure (MAP) was measured by using a polyethylene catheter inserted into a femoral artery at week 8 or 12, after ketamine (10 mg/kg i.v.) and sodium thiopental (50 mg/kg i.v.) sedation.

**Q.** How did the ALP (0.3 mg/kg p.o. 5 days/week) turn out when OC[C@H]1O[C@H](Sc2cncc(Br)c2)[C@H](O)[C@@H](n2cc(-c3cc(F)c(F)c(F)c3)nn2)[C@H]1O [selvigaltin] was run?
**A.** Its ALP is 69.43 ± 38.22 U/L.

**Q.** And the ALT (0.3 mg/kg p.o. 5 days/week)?
**A.** The ALT was 45.71 ± 22.51 U/L.

**Q.** What about the AST (0.3 mg/kg p.o. 5 days/week) of the same molecule?
**A.** The AST was 74.29 ± 51.50 U/L.

**Q.** What about the Albumin (0.3 mg/kg p.o. 5 days/week) of the same molecule?
**A.** The Albumin was 38.29 ± 4.42 g/L.

**Q.** And the Bilirubin (0.3 mg/kg p.o. 5 days/week)?
**A.** The Bilirubin was 17.91 ± 13.00 µM.

**Q.** And the Glycaemia (0.3 mg/kg p.o. 5 days/week)?
**A.** The Glycaemia was 1.21 ± 0.15 gr/L.

**Q.** What about the “Liver Weight” value (0.3 mg/kg p.o. 5 days/week) of the same molecule?
**A.** The value was 3.56 ± 0.28 % of BW.

**Q.** What about the MAP (0.3 mg/kg p.o. 5 days/week) of the same molecule?
**A.** The MAP was 144.91 ± 16.18 mmHg.

**Q.** What about the “OGTT (iAUC)” value (0.3 mg/kg p.o. 5 days/week) of the same molecule?
**A.** The value was 165.51 ± 20.71.

**Q.** And the “Plasma Cholesterol” value (0.3 mg/kg p.o. 5 days/week)?
**A.** The value was 2,277.43 ± 1,078.47 mg/dL.

**Q.** What about the “Plasma Triglycerides” value (0.3 mg/kg p.o. 5 days/week) of the same molecule?
**A.** Its value is 374.00 ± 619.70 mg/dL.

**Q.** And the “Tissue Triglycerides” value (0.3 mg/kg p.o. 5 days/week)?
**A.** Its value is 14.76 ± 2.26 nmol/mg Liver.

**Q.** And the “VAT Weight” value (0.3 mg/kg p.o. 5 days/week)?
**A.** The value was 0.67 ± 0.21 % of BW.

**Q.** What about the γGT (0.3 mg/kg p.o. 5 days/week) of the same molecule?
**A.** Its γGT is 30.08 ± 22.90 U/L.

**Q.** And the ALP (1.0 mg/kg p.o. 5 days/week)?
**A.** The ALP was 72.86 ± 65.69 U/L.

**Q.** What about the ALT (1.0 mg/kg p.o. 5 days/week) of the same molecule?
**A.** Its ALT is 58.14 ± 27.72 U/L.

**Q.** And the AST (1.0 mg/kg p.o. 5 days/week)?
**A.** The AST was 59.00 ± 37.48 U/L.

**Q.** And the Albumin (1.0 mg/kg p.o. 5 days/week)?
**A.** The Albumin was 38.71 ± 2.63 g/L.

**Q.** What about the Bilirubin (1.0 mg/kg p.o. 5 days/week) of the same molecule?
**A.** The Bilirubin was 9.53 ± 3.73 µM.

**Q.** And the Glycaemia (1.0 mg/kg p.o. 5 days/week)?
**A.** The Glycaemia was 1.90 ± 0.87 gr/L.

**Q.** And the “Liver Weight” value (1.0 mg/kg p.o. 5 days/week)?
**A.** The value was 3.73 ± 0.32 % of BW.

**Q.** And the MAP (1.0 mg/kg p.o. 5 days/week)?
**A.** The MAP was 151.23 ± 26.21 mmHg.

**Q.** And the “OGTT (iAUC)” value (1.0 mg/kg p.o. 5 days/week)?
**A.** The value was 189.37 ± 22.39.

**Q.** What about the “Plasma Cholesterol” value (1.0 mg/kg p.o. 5 days/week) of the same molecule?
**A.** Its value is 2,182.86 ± 776.09 mg/dL.

**Q.** And the “Plasma Triglycerides” value (1.0 mg/kg p.o. 5 days/week)?
**A.** Its value is 157.29 ± 68.66 mg/dL.

**Q.** And the “Tissue Triglycerides” value (1.0 mg/kg p.o. 5 days/week)?
**A.** Its value is 14.34 ± 1.35 nmol/mg Liver.

**Q.** And the “VAT Weight” value (1.0 mg/kg p.o. 5 days/week)?
**A.** The value was 0.68 ± 0.24 % of BW.

**Q.** What about the γGT (1.0 mg/kg p.o. 5 days/week) of the same molecule?
**A.** Its γGT is 27.71 ± 14.16 U/L.

**Q.** And the ALP (5.0 mg/kg p.o. 5 days/week)?
**A.** The ALP was 49.57 ± 30.84 U/L.

**Q.** And the ALT (5.0 mg/kg p.o. 5 days/week)?
**A.** Its ALT is 56.43 ± 20.02 U/L.

**Q.** What about the AST (5.0 mg/kg p.o. 5 days/week) of the same molecule?
**A.** Its AST is 62.43 ± 15.80 U/L.

**Q.** What about the Albumin (5.0 mg/kg p.o. 5 days/week) of the same molecule?
**A.** Its Albumin is 39.29 ± 5.94 g/L.

**Q.** And the Bilirubin (5.0 mg/kg p.o. 5 days/week)?
**A.** The Bilirubin was 15.45 ± 9.05 µM.

**Q.** And the Glycaemia (5.0 mg/kg p.o. 5 days/week)?
**A.** Its Glycaemia is 1.43 ± 0.35 gr/L.

**Q.** And the “Liver Weight” value (5.0 mg/kg p.o. 5 days/week)?
**A.** The value was 3.56 ± 0.16 % of BW.

**Q.** And the MAP (5.0 mg/kg p.o. 5 days/week)?
**A.** The MAP was 141.04 ± 30.52 mmHg.

**Q.** What about the “OGTT (iAUC)” value (5.0 mg/kg p.o. 5 days/week) of the same molecule?
**A.** Its value is 165.00 ± 2.65.

**Q.** What about the “Plasma Cholesterol” value (5.0 mg/kg p.o. 5 days/week) of the same molecule?
**A.** Its value is 1,546.43 ± 350.47 mg/dL.

**Q.** What about the “Plasma Triglycerides” value (5.0 mg/kg p.o. 5 days/week) of the same molecule?
**A.** Its value is 191.43 ± 234.40 mg/dL.

**Q.** What about the “Tissue Triglycerides” value (5.0 mg/kg p.o. 5 days/week) of the same molecule?
**A.** Its value is 14.51 ± 1.49 nmol/mg Liver.

**Q.** What about the “VAT Weight” value (5.0 mg/kg p.o. 5 days/week) of the same molecule?
**A.** Its value is 0.87 ± 0.32 % of BW.

**Q.** What about the γGT (5.0 mg/kg p.o. 5 days/week) of the same molecule?
**A.** Its γGT is 21.29 ± 13.11 U/L.
